For orientation: IC50 means the concentration that gives 50% inhibition.

Here are results for 24 compounds from patent publication US10023592B2, “Bromodomain inhibitors” (Celgene Quanticel Research, Inc., priority 2013, dated 2018).

One assay addresses BRD4(BD1) (Homo sapiens (Human), UniProt O60885). The experiment in a line: In vitro enzyme inhibition assay (BRD4 AlphaScreen). The format is binding. An outline of the steps:
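AlphaScreen proximity readout, using streptavidin donor and Ni-chelate acceptor beads at 5 μg/mL final, monitors biotin-H4 tetraacetylated peptide interaction with purified His-tagged BRD4.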
On the technique in general: Alpha assays give light when donor and acceptor beads are brought close together.

In assay [1] the test system is HL-60, human proleukemia cells. The experiment in a line: Cell-MTS proliferation assay, HL-60. The format is cell-based. The conditions noted are these: Homo sapiens, 168 hr. The essentials: (§1)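 Cells were seeded per 96-well at densities giving ~90% confluence by day 7 (Raji 15,000, HL-60 5,000, NCI-H460 3,000) and dosed 24 hr later with an 11-point dilution, 100 μM to 2.0 nM final. Seven-day MTS colorimetric read at OD490; IC50 from background-subtracted, DMSO-normalised values.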
(Tetrazolium assays rely on reduction of a dye to a coloured formazan, in cell work by metabolically active cells.)

Assay [2] has as its system Raji, human Burkitts lymphoma cells. The experiment in a line: Cell-MTS proliferation assay, Raji. The format is cell-based. The conditions noted are these: Homo sapiens, 168 hr. The essentials:
as §1

Assay [3] concerns NCI-H460, human non-small cell lung cancer cells. Nature of the assay: Cell-MTS proliferation assay, NCI-H460. The format is cell-based. The conditions noted are these: Homo sapiens, 168 hr. An outline of the steps: as §1
Where [4] appears, read: in vitro enzyme inhibition assay.
The mark [5] stands for this setting: Cell-MTS proliferation, HL-60 cells.
Where [6] appears, read: Cell-MTS proliferation, Raji cells.
[7] abbreviates: Cell-MTS proliferation, NCI-H460 cells.
Where [8] appears, read: NCI-H460, Cell-MTS proliferation.
[9] abbreviates: HL-60, Cell-MTS, class symbols A/B/C.
[10] abbreviates: Raji, Cell-MTS, class symbols A/B/C.
[11] abbreviates: NCI-H460, Cell-MTS, class symbols A/B/C.

On to `Cn1cc(-c2cc(NS(C)(=O)=O)ccc2Oc2ccc(F)cc2F)c2occc2c1=O` [Example 380, N-[4-(2,4-difluorophenoxy)-3-(5-methyl-4-oxofuro[3,2-c]pyridin-7-yl)phenyl] methanesulfonamide], for which the IC50 on BRD4(BD1) (setting [4]) is less than 500 nM; in assay [1] (setting [5]), less than 500 nM; in assay [2] (setting [6]) it was less than 500 nM; in assay [3] (setting [7]), greater than 5000 nM.

Regarding `Cc1cc(-c2cc(S(C)(=O)=O)ccc2OC2CCOC2)cn(C)c1=O` (stereo not drawn) [Example 426, 1,3-dimethyl-5-[5-methylsulfonyl-2-(oxolan-3-yloxy)phenyl]pyridin-2-one], the IC50 was less than 500 nM at BRD4(BD1) (setting [4]), 500 to 5000 nM in assay [1] (setting [5]), 500 to 5000 nM in assay [2] (setting [6]) and greater than 5000 nM in assay [3] (setting [7]).

Turning to `Cn1cc(-c2cc(CS(C)(=O)=O)ccc2Oc2ccc(F)cc2F)cc(F)c1=O` [Example 437, 5-[2-(2,4-difluorophenoxy)-5-(methylsulfonylmethyl)phenyl]-3-fluoro-1-methylpyridin-2-one], the 50% inhibitory concentration (IC50) at BRD4(BD1) (setting [4]) is less than 500 nM; in assay [1] (setting [5]), less than 500 nM; in assay [2] (setting [6]) it was less than 500 nM; in assay [3] (setting [7]), greater than 5000 nM.

`Cn1cc(-c2cc(CS(C)(=O)=O)ccc2Oc2ccc(F)cc2F)ccc1=O` [Example 470, 5-[2-(2,4-difluorophenoxy)-5-(methylsulfonylmethyl)phenyl]-1-methylpyridin-2-one]: the half-inhibitory concentration (IC50) against BRD4(BD1) (setting [4]) is less than 500 nM; in assay [1] (setting [5]) it was less than 500 nM; in assay [2] (setting [6]) it was less than 500 nM; in assay [3] (setting [7]), 500 to 5000 nM.

As for `Cn1cc(-c2cccc(NS(C)(=O)=O)c2)cc(O)c1=O` [Example 467, N-[3-(5-hydroxy-1-methyl-6-oxopyridin-3-yl)phenyl]methanesulfonamide], the concentration for half-maximal inhibition (IC50) at BRD4(BD1) (setting [4]) is 500 to 5000 nM; in assay [1] (setting [5]), greater than 5000 nM; in assay [2] (setting [6]), greater than 5000 nM; in assay [3] (setting [7]), greater than 5000 nM.

Take `CCN(c1ncc(OCC2CC2)c(-c2cc(C)c(=O)n(C)c2)n1)S(C)(=O)=O` [Example 162, N-[5-(cyclopropylmethoxy)-4-(1,5-dimethyl-6-oxopyridin-3-yl)pyrimidin-2-yl]-N-ethylmethanesulfonamide]: the 50% inhibitory concentration (IC50) is less than 500 nM against BRD4(BD1) (setting [4]); less than 500 nM in assay [1] (HL-60, Cell-MTS proliferation); less than 500 nM in assay [2] (Raji, Cell-MTS proliferation); greater than 5000 nM in assay [3] (setting [8]).

`CCS(=O)(=O)Nc1ccc(O[C@H]2CC[C@H](O)CC2)c(-c2cc(C)c(=O)n(C)c2)c1` [Example 430, N-[3-(1,5-dimethyl-6-oxopyridin-3-yl)-4-(trans-4-hydroxycyclohexyl)oxyphenyl]ethanesulfonamide]: the IC50 at BRD4(BD1) (setting [4]) was less than 500 nM; in assay [1] (setting [5]) it was less than 500 nM; in assay [2] (setting [6]), less than 500 nM; in assay [3] (setting [7]) it was greater than 5000 nM.

Consider `Cn1cc(-c2cc(S(N)(=O)=O)ccc2NCC2CC2)ccc1=O` [Example 453, 4-(cyclopropylmethylamino)-3-(1-methyl-6-oxopyridin-3-yl)benzenesulfonamide], for which the IC50 (against BRD4(BD1) (setting [4]); in assay [1] (setting [5]); in assay [2] (setting [6]); in assay [3] (setting [7])) was greater than 5000 nM each time.

Regarding `Cn1cc(-c2cc(S(C)(=O)=O)ccc2Oc2ccc(F)cc2F)cc(F)c1=O` [Example 120, 5-[2-(2,4-difluorophenoxy)-5-methylsulfonylphenyl]-3-fluoro-1-methylpyridin-2-one], the IC50 against BRD4(BD1) (class symbols A/B/C) was 500 to 5000 nM; in assay [1] (setting [9]), 500 to 5000 nM; in assay [2] (setting [10]), greater than 5000 nM; in assay [3] (setting [11]), greater than 5000 nM.

`Cc1cc(-c2cc(NS(C)(=O)=O)ccc2OC2CCOC2)cn(C)c1=O` (stereo not drawn) [Example 444, N-[3-(1,5-dimethyl-6-oxopyridin-3-yl)-4-(oxolan-3-yloxy)phenyl] methanesulfonamide]: the 50% inhibitory concentration (IC50) is less than 500 nM on BRD4(BD1) (setting [4]), less than 500 nM in assay [1] (setting [5]), less than 500 nM in assay [2] (setting [6]) and greater than 5000 nM in assay [3] (setting [7]).

For `Cc1cc(-c2nc(CS(C)(=O)=O)ncc2OCC2CC2)cn(C)c1=O` [Example 144, 5-[5-(cyclopropylmethoxy)-2-(methylsulfonylmethyl)pyrimidin-4-yl]-1,3-dimethylpyridin-2-one], the IC50 against BRD4(BD1) (setting [4]) was less than 500 nM; in assay [1] (HL-60, Cell-MTS proliferation), 500 to 5000 nM; in assay [2] (Raji, Cell-MTS proliferation) it was greater than 5000 nM; in assay [3] (setting [8]) it was greater than 5000 nM.

For `Cc1cc(-c2cc(OCc3ccccc3OC(F)F)cc(S(C)(=O)=O)c2)cn(C)c1=O` [Example 333, 5-[3-[[2-(difluoromethoxy)phenyl]methoxy]-5-methylsulfonylphenyl]-1,3-dimethylpyridin-2-one], the 50% inhibitory concentration (IC50) against BRD4(BD1) (setting [4]) is less than 500 nM; in assay [1] (HL-60, Cell-MTS proliferation), less than 500 nM; in assay [2] (Raji, Cell-MTS proliferation) it was 500 to 5000 nM; in assay [3] (setting [8]) it was greater than 5000 nM.

On to `COc1ccc(-c2cn(C)c(=O)c3cncn23)cc1NS(C)(=O)=O` [Example 132, N-[2-methoxy-5-(7-methyl-8-oxoimidazo[1,5-a]pyrazin-5-yl)phenyl]methanesulfonamide], for which the IC50 was 500 to 5000 nM against BRD4(BD1) (class symbols A/B/C), 500 to 5000 nM in assay [1] (setting [9]), greater than 5000 nM in assay [2] (setting [10]) and 500 to 5000 nM in assay [3] (setting [11]).

With `Cn1cc(-c2cc(S(C)(=O)=O)ccc2OC2CCCOC2)c2ccccc2c1=O` (stereo not drawn) [Example 179, 2-methyl-4-[5-methylsulfonyl-2-(oxan-3-yloxy)phenyl]isoquinolin-1-one], the half-inhibitory concentration (IC50) at BRD4(BD1) (setting [4]) is less than 500 nM; in assay [1] (HL-60, Cell-MTS proliferation), less than 500 nM; in assay [2] (Raji, Cell-MTS proliferation), less than 500 nM; in assay [3] (setting [8]), greater than 5000 nM.

Regarding `Cc1cc(-c2cc(S(C)(=O)=O)ccc2Nc2ccc(F)cc2F)cn(C)c1=O` [Example 398, 5-[2-(2,4-difluoroanilino)-5-methylsulfonylphenyl]-1,3-dimethylpyridin-2-one], the IC50 is less than 500 nM against BRD4(BD1) (setting [4]), less than 500 nM in assay [1] (setting [5]), 500 to 5000 nM in assay [2] (setting [6]) and greater than 5000 nM in assay [3] (setting [7]).

Consider `CNc1cc(-c2ccc(OC)c(NS(C)(=O)=O)c2)cn(C)c1=O` [Example 110, N-[2-methoxy-5-[1-methyl-5-(methylamino)-6-oxopyridin-3-yl]phenyl]methanesulfonamide], for which the 50% inhibitory concentration (IC50) was less than 500 nM against BRD4(BD1) (class symbols A/B/C), 500 to 5000 nM in assay [1] (setting [9]), greater than 5000 nM in assay [2] (setting [10]) and greater than 5000 nM in assay [3] (setting [11]).

In the case of `Cc1cc(-c2cc(OC(C)c3ccccc3)cc(S(C)(=O)=O)c2)cn(C)c1=O` (stereo not drawn) [Example 336, 1,3-dimethyl-5-[3-methylsulfonyl-5-(1-phenylethoxy)phenyl]pyridin-2-one], the half-inhibitory concentration (IC50) is less than 500 nM on BRD4(BD1) (setting [4]); less than 500 nM in assay [1] (HL-60, Cell-MTS proliferation); 500 to 5000 nM in assay [2] (Raji, Cell-MTS proliferation); greater than 5000 nM in assay [3] (setting [8]).

For the compound `Cn1cc(-c2cc(S(C)(=O)=O)ccc2OCC2CC2)c2occc2c1=O` [Example 377, 7-[2-(cyclopropylmethoxy)-5-methylsulfonylphenyl]-5-methylfuro[3,2-c]pyridin-4-one], the IC50 on BRD4(BD1) (setting [4]) was less than 500 nM; in assay [1] (setting [5]) it was less than 500 nM; in assay [2] (setting [6]), less than 500 nM; in assay [3] (setting [7]), greater than 5000 nM.

Consider `CCS(=O)(=O)c1ccc(NCC2CC2)c(-c2cn(C)c(=O)c3cc(F)ccc23)c1` [Example 195, 4-[2-(cyclopropylmethylamino)-5-ethylsulfonylphenyl]-7-fluoro-2-methylisoquinolin-1-one], for which the 50% inhibitory concentration (IC50) was less than 500 nM against BRD4(BD1) (setting [4]); less than 500 nM in assay [1] (HL-60, Cell-MTS proliferation); less than 500 nM in assay [2] (Raji, Cell-MTS proliferation); greater than 5000 nM in assay [3] (setting [8]).

For the compound `CCS(=O)(=O)c1ccc(OCC2CC2)c(-c2cc(C)c(=O)n(C3CC3)c2)c1` [Example 251, 1-cyclopropyl-5-[2-(cyclopropylmethoxy)-5-ethylsulfonylphenyl]-3-methylpyridin-2-one], the IC50 at BRD4(BD1) (setting [4]) was less than 500 nM; in assay [1] (HL-60, Cell-MTS proliferation) it was less than 500 nM; in assay [2] (Raji, Cell-MTS proliferation) it was 500 to 5000 nM; in assay [3] (setting [8]), greater than 5000 nM.

Regarding `CC#CCOc1ccc(S(C)(=O)=O)cc1-c1cn(C)c(=O)c2ccccc12` [Example 184, 4-(2-but-2-ynoxy-5-methylsulfonylphenyl)-2-methylisoquinolin-1-one], the IC50 against BRD4(BD1) (setting [4]) is less than 500 nM; in assay [1] (HL-60, Cell-MTS proliferation), less than 500 nM; in assay [2] (Raji, Cell-MTS proliferation), 500 to 5000 nM; in assay [3] (setting [8]), 500 to 5000 nM.

Take `COCCn1cc(-c2cc(S(C)(=O)=O)ccc2OCC2CC2)cc(C)c1=O` [Example 244, 5-[2-(cyclopropylmethoxy)-5-methylsulfonylphenyl]-1-(2-methoxyethyl)-3-methylpyridin-2-one]: the IC50 was 500 to 5000 nM at BRD4(BD1) (setting [4]); 500 to 5000 nM in assay [1] (HL-60, Cell-MTS proliferation); greater than 5000 nM in assay [2] (Raji, Cell-MTS proliferation); greater than 5000 nM in assay [3] (setting [8]).

With `CCS(=O)(=O)c1ccc(OCC2CC2)c(-c2cn(C)c(=O)c3ccccc23)n1` [Example 206, 4-[3-(cyclopropylmethoxy)-6-ethylsulfonylpyridin-2-yl]-2-methylisoquinolin-1-one], the half-inhibitory concentration (IC50) against BRD4(BD1) (setting [4]) was less than 500 nM; in assay [1] (HL-60, Cell-MTS proliferation) it was less than 500 nM; in assay [2] (Raji, Cell-MTS proliferation) it was less than 500 nM; in assay [3] (setting [8]), greater than 5000 nM.

`CCS(=O)(=O)Cc1ccc(Oc2ccc(F)cc2F)c(-c2cn(C)c(=O)c3cncn23)c1` [Example 369, 5-[2-(2,4-difluorophenoxy)-5-(ethylsulfonylmethyl)phenyl]-7-methylimidazo[1,5-a]pyrazin-8-one]: the IC50 on BRD4(BD1) (setting [4]) was less than 500 nM; in assay [1] (HL-60, Cell-MTS proliferation), less than 500 nM; in assay [2] (Raji, Cell-MTS proliferation) it was 500 to 5000 nM; in assay [3] (setting [8]), greater than 5000 nM.
